Reference: US9481669B2, “Pladienolide pyridine compounds and methods of use” (Eisai R&D Management Co., Ltd., priority 2014, dated 2016)
Entries after “also recorded” stand apart in the source; their conditions may differ. Read-outs that look alike come from different tables or passages of the source.

Key:
[1] = Mouse pharmacokinetic (PK) study; format: in vivo, CD-1 mice; settings: for AUC0-inf/D / BA (%) / AUC(0-inf) / AUC(0-t) / half-life / clearance / Vd / Cmax / Tmax / AUC / Cmax/D / bioavailability: CD-1 mice; for oral bioavailability and pharmacokinetic properties (in words): mouse model, IV and PO dosing; for AUC(0-inf) / AUC(0-t) / half-life / clearance / Vd / Cmax / Tmax / AUC / bioavailability: mouse, plasma; for Vd: read-out: Vss; for AUC: read-out: AUCfinite
Protocol: (§1) Compound 2 was dosed at 5 mg/kg IV (intravenous) or 10 mg/kg PO (oral administration) to CD-1 mice. Following administration, blood samples were collected at pre-determined time points from five mice via serial bleeding of the tail vein. Blood was collected at 0.083 (0.167 PO only), 0.5, 1, 2, 4, 6, 8, and 24 hours post administration. The blood samples were centrifuged at 5000 RPM for 5 minutes to collect plasma within 30 minutes of blood collection. After extraction, samples were assayed using LCMS. PK parameters were calculated using non-compartmental analysis in WinNonlin v6.3.
as §1, with “Compound 1” for “Compound 2”, “IV” for “IV (intravenous)”, “or 12” for “or 10”, “PO” for “PO (oral administration)”, “bleeding from” for “bleeding of”, “hours post-dose.” for “hours post administration.”
Compound 3 was dosed at 5.964 mg/kg IV or 13.307 mg/kg PO to CD-1 mice. Following administration, blood samples were collected at pre-determined time points from five mice via serial bleeding from the tail vein. Blood was collected at 0.083 (0.167 PO only), 0.5, 1, 2, 4, 6, 8, and 24 hours post-dose. The blood samples were centrifuged at 5000 RPM for 5 minutes to collect plasma within 30 minutes of blood collection. After extraction, samples were assayed using LCMS. PK parameters were calculated using non-compartmental analysis in WinNonlin v6.3.
Compound 4 was dosed at 5 mg/kg IV or 10 mg/kg PO to CD-1 mice. Following administration, blood samples were collected at pre-determined time-points from five mice via serial bleeding from the tail vein. Blood was collected at 0.083 (0.167 PO only), 0.5, 1, 2, 4, 6, 8, and 24 hours post-dose. The blood samples will be centrifuged at 5000 RPM for 5 minutes to collect plasma within 30 minutes of blood collection. After extraction, samples were assayed using LCMS. PK parameters were calculated using non-compartmental analysis in WinNonlin v6.3.

[2] = pH stability measurement (UPLC, 0.1 N HCl); format: physicochemical; settings: 0.1 N HCl, pH 1, 24 hours
Protocol: Compounds were provided in 96-well plates and tested in triplicate. Four microliters of a 10 mM stock solution of compound in DMSO were distributed into each of three wells. The plate was stored at or below −20° C. until the day of the analysis. Methanol (HPLC grade) and 0.1 N HCl (EMD catalog HX0603A-6) were used for dilutions. Acetonitrile (HPLC grade), water (Milli-Q filtered), trifluoroacetic acid (spectral grade) and 0.2M phosphate buffer (Wako, catalog no. 163-14471) were used to prepare the mobile phase for the two analyses.
Stability data was obtained using a Waters Acquity UPLC equipped with a UV detector (Waters TUV) and single quadrupole MS detector (Waters SQD). The 96-well plate containing the compound(s) of interest was(were) removed from the freezer and allowed to warm to room temperature for one hour. The UPLC was primed, equilibrated and the system performance was verified by injecting a standard. After 1 hour, each of the three wells was diluted with 266 μL 0.1 N HCl to give pH=1. The plate was covered and placed on a shaker (Eppindorf Thermomixer R) for 45 minutes at 600 rpm. The plate was removed from the shaker, and the contents of each well were filtered through a filtration plate (Millipore catalog no. MSSLBPC50) by vacuum and injected into the UPLC. After approximately 24 hours, the contents of the wells were re-injected into the UPLC.
Stability in the various buffers was measured by comparing the peak area- % of the analyte in methanol versus the peak area- % of the analyte at the same retention time in 0.1 N HCl buffer in the 24 hr time point injection.

[3] = test system: Pre-EIF4A1 and SLC25A19 expression in Nalm-6 SF3B1^K700E xenograft tumors; assay: PK/PD testing in Nalm-6 mouse xenograft model; format: in vivo, CB17-SCID mice; settings: single oral dose
Protocol: Pharmacokinetics (PK)/pharmacodynamics (PD) of Compound 2 were also analyzed in the Nalm-6 mouse xenograft model. Nalm-6 SF3B1^K700E isogenic cells (human pre B-cell line, 10×10^6 cells) were subcutaneously implanted into the flank of female CB17-SCID mice. Mice were administered a single oral dose of 10 mg/kg Compound 2 (10% ethanol, 5% TWEEN-80, 85% saline), and the tumors were collected at the indicated times post administration for analysis.
RNA was isolated using RiboPure™ RNA purification kit (Ambion®) and used for qPCR analysis. The RNA was retrotranscribed according to the instructions of the SuperScript® VILO™ cDNA synthesis kit (Invitrogen™), and 0.04 μl of cDNA was used for quantitative PCR (qPCR). qPCR for pre-mRNA EIF4A1 and mature mRNA […] and PK evaluation were performed as reported previously (Eskens, F. A. et al. Phase I pharmacokinetic and pharmacodynamic study of the first-in-class spliceosome inhibitor E7107 in patients with advanced solid tumors. Clin Cancer Res. 19, 6296-6304, doi:10.1158/1078-0432.CCR-13-0485 (2013)). All animal studies were carried out according to the H3 Biomedicine Guide for the Care and Use of Laboratory Animals.
Pharmacokinetics (PK)/pharmacodynamics (PD) of Compound 1 were also analyzed in the Nalm-6 mouse xenograft model. […]

## C/C(=C\C=C\[C@@H](C)c1ccccn1)[C@H]1OC(=O)C[C@H](O)CC[C@@](C)(O)[C@@H](OC(=O)N2CCC(N3CCCCC3)CC2)/C=C/[C@@H]1C [Compound 4, (2S,3 S,6S,7R,10R,E)-7,10-dihydroxy-3,7-dimethyl-12-oxo-2-((R,2E,4E)-6-(pyridin-2-yl)hepta-2,4-dien-2-yl)oxacyclododec-4-en-6-yl[1,4′-bipiperidine]-1′-carboxylate]
[1]; 5 mg/kg IV (Table 7)
  AUC0-inf/D: 1.325 ug/mL * hr/D
  AUC(0-inf): 6620 ng·h/mL
  AUC(0-t): 6610 ng·h/mL
  half-life: 3.01 h
  Vd: 1.89 L/kg
[1]; 10 mg/kg PO (Table 7)
  AUC0-inf/D: 0.795 ug/mL * hr/D
  BA (%): 60.024%
  AUC(0-inf): 7950 ng·h/mL
  AUC(0-t): 7910 ng·h/mL
  Cmax: 1250 ng/mL
  Tmax: 2 h
  half-life: 2.98 h
[1]
  oral bioavailability and pharmacokinetic properties (in words): showed oral bioavailability and favorable pharmacokinetic properties; also recorded: possess oral bioavailability and favorable pharmacokinetic properties
[1]; 5 mg/kg IV (Table 7), read-out: CLtot (converted)
  clearance: 12.6 mL/min/kg
[2]
  % parent remaining (pH = 1, 24 hours): 99%

## C/C(=C\C=C\[C@@H](C)c1ccccn1)[C@H]1OC(=O)C[C@H](O)CC[C@@](C)(O)[C@@H](OC(=O)N2CCC(N3CCCCCC3)CC2)/C=C/[C@@H]1C [Compound 3, (2S,3S,6S,7R,10R,E)-7,10-dihydroxy-3,7-dimethyl-12-oxo-2-((R,2E,4E)-6-(pyridin-2-yl)hepta-2,4-dien-2-yl)oxacyclododec-4-en-6-yl 4-(azepan-1-yl)piperidine-1-carboxylate]
[1]; 5.964 mg/kg IV
  AUC0-inf/D: 1.047 μg/mL * hr/D
  AUC(0-inf): 6240 ng·h/mL
  half-life: 3.66 h
  AUC: 6210 ng·h/mL
  Vd: 2.98 L/kg
[1]; 13.307 mg/kg PO
  AUC0-inf/D: 0.615 μg/mL * hr/D
  BA (%): 58.758%
  AUC(0-inf): 8190 ng·h/mL
  Cmax: 1570 ng/mL
  Tmax: 2 h
  half-life: 3.32 h
  AUC: 8140 ng·h/mL
[1]
  oral bioavailability and pharmacokinetic properties (in words): showed oral bioavailability and favorable pharmacokinetic properties; also recorded: possess oral bioavailability and favorable pharmacokinetic properties
[1]; 5.964 mg/kg IV, read-out: CLtot (converted)
  clearance: 15.9 mL/min/kg
[2]
  % parent remaining (pH = 1, 24 hours): 98%

## C/C(=C\C=C\[C@@H](C)c1ccccn1)[C@H]1OC(=O)C[C@H](O)CC[C@@](C)(O)[C@@H](OC(=O)N2CCN(C3CCCCCC3)CC2)/C=C/[C@@H]1C [Compound 1, (2S,3S,6S,7R,10R,E)-7,10-dihydroxy-3,7-dimethyl-12-oxo-2-((R,2E,4E)-6-(pyridin-2-yl)hepta-2,4-dien-2-yl)oxacyclododec-4-en-6-yl 4-cycloheptylpiperazine-1-carboxylate]
[1]; 5 mg/kg IV (Table 5)
  AUC0-inf/D: 934.15 ng · h/mL/D
  AUC(0-inf): 4670 ng·h/mL
  AUC(0-t): 4450 ng·h/mL
  half-life: 2.54 h
  Vd: 2.1 L/kg
[1]; 12 mg/kg PO
  AUC0-inf/D: 487.06 ng · h/mL/D
  Cmax/D: 141.47 ng/mL/D
  AUC(0-inf): 6230 ng·h/mL
  AUC(0-t): 6210 ng·h/mL
  Cmax: 1810 ng/mL
  Tmax: 0.5 h
  bioavailability: 52.1%
  half-life: 3 h
[1]
  oral bioavailability and pharmacokinetic properties (in words): showed oral bioavailability and favorable pharmacokinetic properties; also recorded: possess oral bioavailability and favorable pharmacokinetic properties
[1]; 5 mg/kg IV (Table 5), read-out: CL (converted)
  clearance: 17.8 mL/min/kg
[2]
  % parent remaining (pH = 1, 24 hours): 91%
[3]
  PD responses (fold change in Pre-EIF4A1 and SLC25A19 expression in tumor): showed PD responses at a tolerated dose

## C/C(=C\C=C\[C@@H](C)c1ccccn1)[C@H]1OC(=O)C[C@H](O)CC[C@@](C)(O)[C@@H](OC(=O)N2CCN(C)CC2)/C=C/[C@@H]1C [Compound 2, (2S,3 S,6S,7R,10R,E)-7,10-dihydroxy-3,7-dimethyl-12-oxo-2-((R,2E,4E)-6-(pyridin-2-yl)hepta-2,4-dien-2-yl)oxacyclododec-4-en-6-yl 4-methylpiperazine-1-carboxylate]
[1]; 5 mg/kg IV
  AUC0-inf/D: 632.71 ng · h/mL/D
  AUC(0-inf): 3160 ng·h/mL
  AUC(0-t): 3160 ng·h/mL
  half-life: 3.88 h
  Vd: 2.37 L/kg
[1]; 10 mg/kg PO
  AUC0-inf/D: 254.49 ng · h/mL/D
  Cmax/D: 84.07 ng/mL/D
  AUC(0-inf): 2540 ng·h/mL
  AUC(0-t): 2510 ng·h/mL
  Cmax: 841 ng/mL
  Tmax: 1 h
  bioavailability: 40.2%
  half-life: 4.04 h
[1]
  oral bioavailability and pharmacokinetic properties (in words): shows oral bioavailability and favorable pharmacokinetic properties; also recorded: possess oral bioavailability and favorable pharmacokinetic properties
[1]; 5 mg/kg IV, read-out: CL (converted)
  clearance: 26.3 mL/min/kg
[2]
  % parent remaining (pH = 1, 24 hours): 96%
[3]
  PD responses (fold change in Pre-EIF4A1 and SLC25A19 expression in tumor): showed PD responses at a tolerated dose
